Patent publication US7939517B2, “1,4,6-androstatriene-3,17-dione (“ATD”) for therapeutic uses” (priority 2004, dated 2011)

How the values were obtained:
[1] = biological target: T1, aromatase enzyme (Homo sapiens, UniProt P11511); assay: aromatase enzyme inhibition (Ki); type: biochemical
T1 sequence (P11511 1-503): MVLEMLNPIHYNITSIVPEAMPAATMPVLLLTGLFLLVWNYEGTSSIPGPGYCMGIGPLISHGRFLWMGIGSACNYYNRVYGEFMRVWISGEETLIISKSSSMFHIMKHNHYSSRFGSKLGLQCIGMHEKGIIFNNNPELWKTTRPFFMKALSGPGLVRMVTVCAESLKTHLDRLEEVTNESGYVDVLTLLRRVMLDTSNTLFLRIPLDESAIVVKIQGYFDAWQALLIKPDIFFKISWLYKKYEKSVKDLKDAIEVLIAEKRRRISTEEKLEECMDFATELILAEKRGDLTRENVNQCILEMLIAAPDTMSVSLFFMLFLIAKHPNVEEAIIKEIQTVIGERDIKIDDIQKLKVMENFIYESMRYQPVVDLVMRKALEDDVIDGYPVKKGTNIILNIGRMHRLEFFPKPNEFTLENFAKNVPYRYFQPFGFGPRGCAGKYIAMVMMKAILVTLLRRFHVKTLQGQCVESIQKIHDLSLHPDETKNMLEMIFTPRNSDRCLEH
Protocol: ATD acts as a suicide substrate by irreversibly binding to the aromatase enzyme and shutting down its activity. Because it is a non-androgenic compound, ATD has fewer side effects associated with anabolic/androgenic steroid use. […] A lower Ki value means the inhibitor binds more tightly to the enzyme and yields greater potency. […] Because it is administered in smaller doses, costs of use of ATD may also be lower. The savings may be passed on to the consumer and/or provide greater profits to the manufacturer. Additionally, with oral or percutaneous/transdermal doses of 25 mg to 150 mg per day in men, ATD will cause a significant increase in endogenous androgen levels with little or no decrease in endogenous estrogen.

[2] = biological target: T1, aromatase enzyme; conditions: inhibitor binding to the aromatase enzyme; from "recent studies"; cited from earlier work

SMILES | ratio of the Ki values (AT concentration relative to ATD for the same effect) [1] | Ki [2]
C[C@]12C=CC(=O)C=C1C=C[C@@H]1[C@@H]2CC[C@]2(C)C(=O)CC[C@@H]12 [ATD, 1,4,6-androstatriene-3,17-dione] | 2.39 times | 
C[C@]12CCC(=O)C=C1C(=O)C[C@@H]1[C@@H]2CC[C@]2(C)C(=O)CC[C@@H]12 [AT, androst-4-ene-3,6,17-trione] |  | 430 nM
